Results reported in the NIST ThermoML archive (doi:10.1021/je060271a).
Values joined by “and” are separate entries in the source; they are usually repeats but may differ in a detail not shown here. Identical values can stand only once. ± gives the expanded uncertainty stated by the source.

Settings: Liquid, Vibrating tube method

CCCCCCC(=O)OCC(COC(=O)CCCCCC)(COC(=O)CCCCCC)COC(=O)CCCCCC [pentaerythritol tetraheptanoate]
Settings | mass density
323.14 K, 25915 kPa | 972.2 ± 1.2 kg/m3
323.14 K, 25942 kPa | 972.3 ± 1.2 kg/m3
323.14 K, 25974 kPa | 972.2 ± 1.2 kg/m3
323.14 K, 26002 kPa | 972.3 ± 1.2 kg/m3
323.14 K, 26088 kPa | 972.3 ± 1.2 kg/m3
323.14 K, 26774 kPa | 972.7 ± 1.2 kg/m3
323.14 K, 26808 kPa | 972.6 ± 1.2 kg/m3
323.14 K, 26837 kPa | 972.6 ± 1.2 kg/m3
323.14 K, 26866 kPa | 972.9 ± 1.2 kg/m3
323.14 K, 27024 kPa | 972.9 ± 1.2 kg/m3
323.14 K, 27055 kPa | 972.9 ± 1.2 kg/m3
323.14 K, 27085 kPa | 972.9 ± 1.2 kg/m3
323.14 K, 27114 kPa | 973 ± 1.2 kg/m3
323.14 K, 27150 kPa | 973 ± 1.2 kg/m3
323.14 K, 27179 kPa | 972.9 ± 1.2 kg/m3
323.14 K, 27214 kPa | 973 ± 1.2 kg/m3
323.14 K, 27244 kPa | 973 ± 1.2 kg/m3
323.14 K, 27274 kPa | 973.1 ± 1.2 kg/m3
323.14 K, 27565 kPa | 973.2 ± 1.2 kg/m3
323.14 K, 27596 kPa | 973.2 ± 1.2 kg/m3
323.14 K, 27731 kPa | 973.3 ± 1.2 kg/m3
323.14 K, 27762 kPa | 973.3 ± 1.2 kg/m3
323.14 K, 27825 kPa | 973.3 ± 1.2 kg/m3
323.14 K, 27863 kPa | 973.4 ± 1.2 kg/m3
323.14 K, 27895 kPa | 973.4 ± 1.2 kg/m3
323.14 K, 28027 kPa | 973.5 ± 1.2 kg/m3
323.14 K, 28373 kPa | 973.8 ± 1.2 kg/m3
323.14 K, 28406 kPa | 973.7 ± 1.2 kg/m3
323.14 K, 28439 kPa | 973.7 ± 1.2 kg/m3
323.14 K, 28757 kPa | 973.8 ± 1.2 kg/m3
323.14 K, 28791 kPa | 973.9 ± 1.2 kg/m3
323.14 K, 28831 kPa | 973.9 ± 1.2 kg/m3
323.14 K, 28904 kPa | 973.9 ± 1.2 kg/m3
323.14 K, 28938 kPa | 974 ± 1.2 kg/m3
323.14 K, 28973 kPa | 974.1 ± 1.2 kg/m3
323.14 K, 29048 kPa | 974.1 ± 1.2 kg/m3
323.14 K, 29083 kPa | 974.1 ± 1.2 kg/m3
323.14 K, 29124 kPa | 974.1 ± 1.2 kg/m3
323.14 K, 29158 kPa | 974.1 ± 1.2 kg/m3
323.14 K, 29193 kPa | 974.1 ± 1.2 kg/m3
323.14 K, 29227 kPa | 974.2 ± 1.2 kg/m3
323.14 K, 29270 kPa | 974.2 ± 1.2 kg/m3
323.14 K, 29304 kPa | 974.3 ± 1.2 kg/m3
323.14 K, 29346 kPa | 974.3 ± 1.2 kg/m3
323.14 K, 29381 kPa | 974.2 ± 1.2 kg/m3
323.14 K, 29416 kPa | 974.2 ± 1.2 kg/m3
323.14 K, 29451 kPa | 974.2 ± 1.2 kg/m3
323.14 K, 29494 kPa | 974.4 ± 1.2 kg/m3
323.14 K, 29529 kPa | 974.4 ± 1.2 kg/m3
323.14 K, 30197 kPa | 974.6 ± 1.2 kg/m3
323.14 K, 30480 kPa | 974.8 ± 1.2 kg/m3
323.14 K, 30518 kPa | 975 ± 1.2 kg/m3
323.14 K, 30556 kPa | 974.9 ± 1.2 kg/m3
323.14 K, 30596 kPa | 974.9 ± 1.2 kg/m3
323.14 K, 30642 kPa | 975 ± 1.2 kg/m3
323.14 K, 30681 kPa | 975.1 ± 1.2 kg/m3
323.14 K, 30728 kPa | 975.2 ± 1.2 kg/m3
323.14 K, 30768 kPa | 975 ± 1.2 kg/m3
323.14 K, 30807 kPa | 975.1 ± 1.2 kg/m3
323.14 K, 30846 kPa | 975 ± 1.2 kg/m3
323.14 K, 30893 kPa | 975.2 ± 1.2 kg/m3
323.14 K, 30933 kPa | 975.1 ± 1.2 kg/m3
323.14 K, 30973 kPa | 975.1 ± 1.2 kg/m3
323.14 K, 31020 kPa | 975.2 ± 1.2 kg/m3
323.14 K, 31060 kPa | 975.2 ± 1.2 kg/m3
323.14 K, 31108 kPa | 975.2 ± 1.2 kg/m3
323.14 K, 31148 kPa | 975.2 ± 1.2 kg/m3
323.14 K, 31188 kPa | 975.3 ± 1.2 kg/m3
323.14 K, 31237 kPa | 975.2 ± 1.2 kg/m3
323.14 K, 31277 kPa | 975.4 ± 1.2 kg/m3
323.14 K, 31319 kPa | 975.3 ± 1.2 kg/m3
323.14 K, 31359 kPa | 975.4 ± 1.2 kg/m3
323.14 K, 31408 kPa | 975.4 ± 1.2 kg/m3
323.14 K, 31448 kPa | 975.4 ± 1.2 kg/m3
323.14 K, 31497 kPa | 975.6 ± 1.2 kg/m3
323.14 K, 31539 kPa | 975.5 ± 1.2 kg/m3
323.14 K, 31580 kPa | 975.4 ± 1.2 kg/m3
323.14 K, 31621 kPa | 975.5 ± 1.2 kg/m3
323.14 K, 31671 kPa | 975.6 ± 1.2 kg/m3
323.14 K, 31712 kPa | 975.5 ± 1.2 kg/m3
323.14 K, 31762 kPa | 975.8 ± 1.2 kg/m3
323.14 K, 31804 kPa | 975.8 ± 1.2 kg/m3
323.14 K, 31847 kPa | 975.7 ± 1.2 kg/m3
323.14 K, 31898 kPa | 975.6 ± 1.2 kg/m3
323.14 K, 31940 kPa | 975.7 ± 1.2 kg/m3
323.14 K, 31982 kPa | 975.8 ± 1.2 kg/m3
323.14 K, 32450 kPa | 976.1 ± 1.2 kg/m3
323.14 K, 32496 kPa | 976 ± 1.2 kg/m3
323.14 K, 32540 kPa | 976 ± 1.2 kg/m3
323.14 K, 32584 kPa | 976.2 ± 1.2 kg/m3
323.14 K, 32637 kPa | 976.1 ± 1.2 kg/m3
323.14 K, 32681 kPa | 976.1 ± 1.2 kg/m3
323.14 K, 33266 kPa | 976.4 ± 1.2 kg/m3
323.14 K, 33360 kPa | 976.5 ± 1.2 kg/m3
323.14 K, 33416 kPa | 976.4 ± 1.2 kg/m3
323.14 K, 34625 kPa | 977.3 ± 1.2 kg/m3
323.15 K, 99.4 kPa | 955.6 ± 1.2 kg/m3
323.15 K, 99.5 kPa | 955.5 ± 1.2 kg/m3 and 955.6 ± 1.2 kg/m3 and 955.7 ± 1.2 kg/m3
323.15 K, 99.7 kPa | 955.7 ± 1.2 kg/m3 and 955.6 ± 1.2 kg/m3
323.15 K, 99.8 kPa | 955.7 ± 1.2 kg/m3
323.15 K, 99.9 kPa | 955.7 ± 1.2 kg/m3 and 955.8 ± 1.2 kg/m3 and 955.6 ± 1.2 kg/m3
323.15 K, 100 kPa | 955.7 ± 1.2 kg/m3 and 955.8 ± 1.2 kg/m3 and 955.6 ± 1.2 kg/m3
323.15 K, 100.2 kPa | 955.7 ± 1.2 kg/m3 [middle of 4 runs]
323.15 K, 100.4 kPa | 955.7 ± 1.2 kg/m3 and 955.8 ± 1.2 kg/m3 and 955.6 ± 1.2 kg/m3
323.15 K, 100.5 kPa | 955.6 ± 1.2 kg/m3 and 955.7 ± 1.2 kg/m3
323.15 K, 100.6 kPa | 955.6 ± 1.2 kg/m3 and 955.7 ± 1.2 kg/m3 and 955.8 ± 1.2 kg/m3
323.15 K, 100.7 kPa | 955.8 ± 1.2 kg/m3 and 955.7 ± 1.2 kg/m3 and 955.5 ± 1.2 kg/m3
323.15 K, 100.9 kPa | 955.7 ± 1.2 kg/m3
323.15 K, 101.1 kPa | 955.6 ± 1.2 kg/m3 and 955.7 ± 1.2 kg/m3
323.15 K, 101.3 kPa | 955.6 ± 1.2 kg/m3
323.15 K, 101.5 kPa | 955.8 ± 1.2 kg/m3 and 955.7 ± 1.2 kg/m3
323.15 K, 101.6 kPa | 955.7 ± 1.2 kg/m3
